Results taken from patent publication US20260108463A1, “NANOEMULSION FORMULATION WITH IMPROVED TACROLIMUS STABILITY AND SKIN PENETRATION” (BIOFRONTERA BIOSCIENCE GMBH, priority 2023, published 2026).
Where two headings read alike, the source gives them in different places.

Tests used:
[1] = cited from earlier work
[2] = cited from earlier work; remark: listed apart in the source
[3] = Solubility test of tacrolimus by visual observation; type: physicochemical; conditions: aqueous nanoemulsion BF200 (at least 90% water content), aqueous with cosolvent or surfactant or cyclodextrin
Method: Tacrolimus was dissolved by mechanical techniques (stirring). Determination of a complete solution of substance was based on visual observation. A complete dissolution was defined as a clear solution with no signs of cloudiness or precipitation. The pure solvents were used as reference.
Samples were prepared as explained in Example D. The compound was dissolved in 10 mM Phosphate buffer (TC2) at defined concentration (see table below). For samples TC3, TC4 and TC5 the lipid phase (intermediate) of nanoemulsion BF200 was used as solvent. In a first step, Tacrolimus was dissolved in the lipid phase, followed by the preparation of the nanoemulsion by combining the aqueous phase with the lipid phase (containing Tacrolimus). Samples TC4 and TC5 were stored at 5° C. and 25° C. for a period of 6 months.

solubility [3]: ≥ 2000 µg/mL
SMILES: C=CC[C@@H]1/C=C(\C)C[C@H](C)C[C@H](OC)[C@H]2O[C@@](O)(C(=O)C(=O)N3CCCC[C@H]3C(=O)O[C@H](/C(C)=C/[C@@H]3CC[C@@H](O)[C@H](OC)C3)[C@H](C)[C@@H](O)CC1=O)[C@H](C)C[C@@H]2OC [Tacrolimus]
logP [1]: > 3 | Stability in aqueous formulations ([2]; 5° C., prior-art aqueous formulations (suspensions)): up to 9 months | Stability in aqueous formulations ([2]; room temperature, prior-art aqueous formulations (suspensions)): approx. 3 months | Stability in aqueous formulations ([2]; room temperature, prior-art aqueous formulations): approx. 90 days
